Biological target: kappa opioid receptor (OPRK1) (Homo sapiens (Human), UniProt P41145)
Assay: OPRK1 antagonist assay (b-arrestin-2-TEV / b-lactamase reporter cell line, EC80 U-50488 challenge)
Assay type: cell-based
Conditions: read-out: IC50 nM (% inhib if other than 50%); antagonist mode vs EC80 U-50488; NA = not active at concentrations up to 10 μM

kappa opioid receptor (OPRK1), sequence (P41145 whole entry): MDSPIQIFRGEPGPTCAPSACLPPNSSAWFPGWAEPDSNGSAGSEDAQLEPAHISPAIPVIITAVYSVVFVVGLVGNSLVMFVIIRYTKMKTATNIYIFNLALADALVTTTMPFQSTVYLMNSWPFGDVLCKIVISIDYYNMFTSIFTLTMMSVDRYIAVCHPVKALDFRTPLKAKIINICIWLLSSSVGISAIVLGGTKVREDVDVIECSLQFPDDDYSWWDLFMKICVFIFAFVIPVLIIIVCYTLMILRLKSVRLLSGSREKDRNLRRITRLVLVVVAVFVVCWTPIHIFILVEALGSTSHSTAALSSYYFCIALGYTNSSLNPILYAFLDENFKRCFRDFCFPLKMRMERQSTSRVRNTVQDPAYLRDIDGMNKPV

| Compound | IC50 [nM] |
| --- | --- |
| Cc1noc(-c2cc3ccccc3nc2N2CCC(NC3CCOCC3)CC2)n1 [compound 232] | 8 |
| COC(=O)c1cc(Br)cnc1N1CCC(NC2CCCCC2)C(C)C1 (centres unmarked) [compound 45] | 164 |
| Cc1cnc(N2CC[C@@H](NC3CCCCC3)[C@H](O)C2)c(C#N)c1 [C67] | 37000 |
| Cc1noc(-c2cc3ccccc3nc2N2CCC(NC3CCCCC3)C2)n1 (centres unmarked) [compound 212] | 267 |
| CO[C@H]1CN(c2ncc(C)cc2-c2nc(C)no2)CC[C@H]1NC1CCCCC1 [compound 299] | 25 |
| Cc1ccc2nc(N3CCC(NC4CCCCCCC4)CC3)c(-c3nc(C)no3)cc2c1 [compound 260] | 261 |
| OCC1CN(c2nc3ccccc3cc2-c2ncco2)CCC1NC1CCCCC1 (centres unmarked) [compound 226] | 107 |
| Cc1ccc2nc(N3CCC(NC4CCCCC4)C(CO)C3)c(C(=O)N(C)C)cc2c1 (centres unmarked) [compound 280] | 99 |
| CO[C@@H]1CN(c2nc3cc(F)ccc3cc2-c2nc(C)no2)CC[C@@H]1NC1CCCCC1 [compound 514] | 55 |
| Cc1nc(-c2cc3cc(F)ccc3nc2N2CCC(NC3CCCCC3)CC2)no1 [compound 467] | 431 |
| COC(=O)c1cc(Br)cnc1N1CCC(NC2CCCC(O)C2)CC1 (centres unmarked) [compound 10] | 652 |
| Cc1ccc2nc(N3CCC(NCC(C)(C)O)CC3)c(-c3nc(C)no3)cc2c1 [compound 402] | 16 |
| Cc1noc(-c2cc(C)c(C)nc2N2CCC(NC3CCCC3)C(CO)C2)n1 (centres unmarked) [compound 223] | 13 |
| Cc1ccc2nc(N3CCC(NCC4CC4)CC3)c(-c3noc(C)n3)cc2c1 [compound 434] | 43 |
| Cc1noc(-c2cc(C(F)(F)F)cnc2N2CCC(NC3CCCCC3)C(CO)C2)n1 (centres unmarked) [compound 187] | 341 |
| Cc1ccc2nc(N3CCC(NC[C@H](C)O)CC3)c(-c3nc(C)no3)cc2c1 [compound 422] | 106 |
| COC(=O)c1cc(I)cnc1N1CCC(NC2CCCCC2)C1 (centres unmarked) [compound 35] | 88 |
| COC(=O)c1cccnc1N1CCC(NC2CCCCC2)C(CO)C1 (centres unmarked) [compound 149] | 5400 |

| Compound | IC50 [nM] |
| --- | --- |
| COC(=O)c1cc(Br)cnc1N1CCC(NC2CCCC2)C(C(=O)OC)C1 (centres unmarked) [compound 117] | 3800 |
| COC(=O)c1cc(C)cnc1N1CCC(NC2CCCCC2)C(CO)C1 (centres unmarked) [compound 109] | 198 |
| Cc1noc(-c2cc(C(F)(F)F)cnc2N2CC[C@@H](NC3CCCCC3)[C@H](O)C2)n1 [compound 173] | 1200 |
| COC(=O)c1cc(C)ccc1N1CCC(NC2CCCCC2)C(OC)C1 (centres unmarked) [compound 539] | 3700 |
| CCN(CC)C(=O)c1cc(Br)cnc1N1CC[C@@H](NC2CCCCC2)[C@H](O)C1 [compound 139] | 4800 |
| COC1CN(c2nc3ccc(C)cc3cc2-c2nc(C)no2)CCC1NC1CCOCC1 (centres unmarked) [compound 326] | 1.9 |
| Cc1noc(-c2nc3ccccc3nc2N2CCC(NC3CCCCC3)C(CO)C2)n1 (centres unmarked) [compound 189] | 125 |
| COC1CN(c2nc(CO)ccc2-c2nc(C)no2)CCC1NC1CCCCC1 (centres unmarked) [compound 425] | 60 |
| Cc1ccc2nc(N3CCC(NC4CCCCC4C)CC3)c(-c3nc(C)no3)cc2c1 (centres unmarked) [compound 348] | 1.3 |
| CCOC(=O)c1cc(Br)cnc1N1CCC(NC2CCCCC2)C(OC)C1 (centres unmarked) [compound 146] | 85 |
| CO[C@@H]1CN(c2nnc(C)cc2C(=O)OC(C)C)CC[C@@H]1NC1CCCCC1 [compound 404] | 63 |
| Cc1ccc2cc(-c3nc(C)no3)c(N3CCC(NC4CCOCC4)CC3)nc2c1 [compound 257] | 930 |
| COC(=O)c1cc(Br)cnc1N1CCC(CNC2CCCCC2)CC1 [compound 31] | 3500 |
| COC1CN(c2nc3ccccc3nc2-c2nc(C)no2)CCC1NC1CCCCC1 (centres unmarked) [compound 190] | 57 |
| Cc1ccc2nc(N3CCC(NCC4CCCCC4)CC3)c(-c3nc(C)no3)cc2c1 [compound 261] | 1470 |
| Cc1cnc(-c2cc(C)cnc2N2CCC(NC3CCCCC3)CC2)nc1 [compound 406] | 7680 |
| COC(=O)c1cc(I)cnc1N1CCC(NC2CCOCC2)C(CO)C1 (centres unmarked) [compound 90] | 186 |
